The IC50 is the concentration that gives 50% inhibition. In general, EC50 refers to the concentration that produces a half-maximal response.

Read-outs that look alike come from different tables or passages of the source.

The results in this text go back to patent US8987195B2 (priority 2012, dated 2015).

The target in assay [1] is HCV NS3/4A protease genotype 1b (Hepatitis C virus genotype 1b, UniProt P26663). Description: HCV NS3/4A protease time-resolved fluorescence (TRF) assay, Ki against genotype 1b. The assay is classed as biochemical. The conditions noted are these: IC50 [gt-1b] (nM), NS3/4A genotype 1b, enzyme 0.2 nM. The essentials:
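Time-resolved fluorescence readout of NS3/4A cleavage of 25 nM europium-labelled peptide over 2.5 h at room temperature, enzyme levels set for signal/background 10–30 (0.2, 0.4, 0.025 nM for 1b, A156T, 3a). Ki by IC50=Ki(1+[S]/KM).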

The next assay deals with HCV genotype 1b replicon. Description: HCV replicon assay, genotype 1b replicon EC50. Format: cell-based, Hepatitis C virus. The conditions noted are these: Hepatitis C virus, genotype 1b replicon, read-out: EC50 [gt-1b]. A digest of the protocol:
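Compound dilution series incubated 24-48 h, G418 absent, with HCV genotype 1b replicon cell lines kept under G418 selection beforehand. Luciferase signal or replicon RNA, by ^32P hybridization/protection or TaqMan normalized to cyclophilin A, was measured after washing and lysis. Four-parameter fitting against DMSO control gave EC50.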
(In general: In antiviral work, replicon cells carry a viral genome segment that copies itself.)

Take `CC(C)(C)OC(=O)N[C@H]1CCCCC/C=C\C2CC2(C(=O)NS(=O)(=O)C2(C)CC2)NC(=O)C2C[C@]3(CCc4c(c(C5CC5)nc5c(F)cccc45)O3)CN2C1=O` (stereo partly drawn) [Example 69, tert-butyl [(2R,6S,12Z)-5′-cyclopropyl-7′-fluoro-14a-{[(1-methylcyclopropyl)sulfonyl]carbamoyl}-5,16-dioxo-1,1′,2′,5,6,7,8,9,10,11,13a,14,14a,15,16,16a-hexadecahydrospiro[cyclopropa[e]pyrrolo[1,2-a][1,4]diazacyclopentadecine-2,3′-pyrano[2,3-c]quinolin]-6-yl]carbamate]: the IC50 in assay [1] (K+ salt) was 0.012 nM. Besides, the EC50 in the assay on HCV genotype 1b replicon (K+ salt) came to 0.82 nM.
For the compound `COc1ccc2c3c(c(C4CC4)nc2c1)O[C@]1(CC3)CC2C(=O)NC3(C(=O)NS(=O)(=O)C4(C)CC4)CC3/C=C\CCCCC[C@H](NC(=O)OC(C)(C)C)C(=O)N2C1` (stereo partly drawn) [Example 70, tert-butyl [(2R,6S,12Z)-5′-cyclopropyl-8′-methoxy-14a-{[(1-methylcyclopropyl)sulfonyl]carbamoyl}-5,16-dioxo-1,1′,2′,5,6,7,8,9,10,11,13a,14,14a,15,16,16a-hexadecahydrospiro[cyclopropa[e]pyrrolo[1,2-a][1,4]diazacyclopentadecine-2,3′-pyrano[2,3-c]quinolin]-6-yl]carbamate], the half-inhibitory concentration (IC50) in assay [1] (K+ salt) amounted to 0.028 nM. In addition, the concentration giving a half-maximal response (EC50) with HCV genotype 1b replicon (K+ salt) came out at 1.39 nM.
The matching figures for `Cc1nc2cc(F)ccc2c2c1O[C@]1(CC2)C[C@H]2C(=O)N[C@]3(C(=O)NS(=O)(=O)C4(C)CC4)C[C@H]3/C=C\CCCCC[C@H](NC(=O)OC(C)(C)C)C(=O)N2C1` [Example 71, tert-butyl [(2R,6S,12Z,13aS,14aR,16aS)-8′-fluoro-5′-methyl-14a-{[(1-methylcyclopropyl)sulfonyl]carbamoyl}-5,16-dioxo-1,1′,2′,5,6,7,8,9,10,11,13a,14,14a,15,16,16a-hexadecahydrospiro[cyclopropa[e]pyrrolo[1,2-a][1,4]diazacyclopentadecine-2,3′-pyrano[2,3-c]quinolin]-6-yl]carbamate]: 0.023 nM and 0.628 nM.
On to `CC(C)(C)OC(=O)N[C@H]1CCCCC/C=C\[C@@H]2C[C@@]2(C(=O)NS(=O)(=O)C2(C)CC2)NC(=O)[C@@H]2C[C@@]3(CCc4c(ccc5ccccc45)O3)CN2C1=O` [Example 72, tert-butyl [(3S,6′S,12′Z,13a′S,14a′R,16a′S)-14a′-{[(1-methylcyclopropyl)sulfonyl]carbamoyl}-5′,16′-dioxo-1,1′,2,5′,6′,7′,8′,9′,10′,11′,13a′,14′,14a′,15′,16′,16a′-hexadecahydrospiro[benzo[f]chromene-3,2′-cyclopropa[e]pyrrolo[1,2-a][1,4]diazacyclopentadecin]-6′-yl]carbamate], for which the half-maximal inhibitory concentration (IC50) in assay [1] came to 0.665 nM. In addition, the EC50 with HCV genotype 1b replicon turned out to be 24.2 nM.
In turn, `CC(C)(C)OC(=O)N[C@H]1CCCCC/C=C\[C@@H]2C[C@@]2(C(=O)NS(=O)(=O)C2(C)CC2)NC(=O)[C@@H]2C[C@]3(CCc4c(ccc5ccccc45)O3)CN2C1=O` [Example 73, tert-butyl [(3R,6′S,12′Z,13a′S,14a′R,16a′S)-14a′-{[(1-methylcyclopropyl)sulfonyl]carbamoyl}-5′,16′-dioxo-1,1′,2,5′,6′,7′,8′,9′,10′,11′,13a′,14′,14a′,15′,16′,16a′-hexadecahydrospiro[benzo[f]chromene-3,2′-cyclopropa[e]pyrrolo[1,2-a][1,4]diazacyclopentadecin]-6′-yl]carbamate] had a 50% inhibitory concentration (IC50) in assay [1] of 0.12 nM. In the assay with HCV genotype 1b replicon, the EC50 stood at 1.71 nM.
`Cc1nc2ccccc2c2c1O[C@@]1(CC2)C[C@H]2C(=O)N[C@]3(C(=O)NS(=O)(=O)C4(C)CC4)C[C@H]3/C=C\CCCCC[C@H](NC(=O)OC(C)(C)C)C(=O)N2C1` [Example 75, tert-butyl [(2S,6S,12Z,13aS,14aR,16a5)-5′-methyl-14a-{[(1-methylcyclopropyl)sulfonyl]carbamoyl}-5,16-dioxo-1,1′,2′,5,6,7,8,9,10,11,13a,14,14a,15,16,16a-hexadecahydrospiro[cyclopropa[e]pyrrolo[1,2-a][1,4]diazacyclopentadecine-2,3′-pyrano[2,3-c]quinolin]-6-yl]carbamate]: the IC50 in assay [1] is 0.022 nM. Besides, the EC50 with HCV genotype 1b replicon stood at 7.36 nM.
In turn, `CC(C)NC(=O)N[C@H]1CCCCC/C=C\[C@@H]2C[C@@]2(C(=O)NS(=O)(=O)C2(C)CC2)NC(=O)[C@@H]2C[C@]3(CCc4c(c(-c5cccc(F)c5)nc5ccccc45)O3)CN2C1=O` [Example 85, (2R,6S,12Z,13aS,14aR,16aS)-5′-(3-fluorophenyl)-N-[(1-methylcyclopropyl)sulfonyl]-5,16-dioxo-6-[(propan-2-ylcarbamoyl)amino]-1,1′,2′,6,7,8,9,10,11,13a,14,15,16,16a-tetradecahydrospiro[cyclopropa[e]pyrrolo[1,2-a][1,4]diazacyclopentadecine-2,3′-pyrano[2,3-c]quinoline]-14a(5R)-carboxamide] had an IC50 in assay [1] of 0.013 nM. Further, in the assay on HCV genotype 1b replicon, the EC50 amounted to 1.31 nM.
`Cc1ccc2nc(C)c3c(c2c1)CC[C@]1(C[C@H]2C(=O)N[C@]4(C(=O)NS(=O)(=O)C5CC5)C[C@H]4/C=C\CCCCC[C@H](NC(=O)OC(C)(C)C)C(=O)N2C1)O3` [Example 87, tert-butyl {(2R,6S,12Z,13aS,14aR,16aS)-14a-[(cyclopropylsulfonyl)carbamoyl]-5′,9′-dimethyl-5,16-dioxo-1,1′,2′,5,6,7,8,9,10,11,13a,14,14a,15,16,16a-hexadecahydrospiro[cyclopropa[e]pyrrolo[1,2-a][1,4]diazacyclopentadecine-2,3′-pyrano[2,3-c]quinolin]-6-yl}carbamate] returned an IC50 in assay [1] of 0.01 nM. Moreover, in the assay with HCV genotype 1b replicon, the EC50 came to 5.87 nM.
In turn, `COC(=O)N[C@H]1CCCCC/C=C\[C@@H]2C[C@@]2(C(=O)NS(=O)(=O)C2(C)CC2)NC(=O)[C@@H]2C[C@]3(CCc4c(c(-c5cccc(F)c5)nc5ccccc45)O3)CN2C1=O` [Example 88, methyl [(2R,6S,12Z,13aS,14aR,16aS)-5′-(3-fluorophenyl)-14a-{[(1-methylcyclopropyl)sulfonyl]carbamoyl}-5,16-dioxo-1,1′,2′,5,6,7,8,9,10,11,13a,14,14a,15,16,16a-hexadecahydrospiro[cyclopropa[e]pyrrolo[1,2-a][1,4]diazacyclopentadecine-2,3′-pyrano[2,3-c]quinolin]-6-yl]carbamate] returned a 50% inhibitory concentration (IC50) in assay [1] of 0.202 nM. Besides, the EC50 in the assay on HCV genotype 1b replicon is 0.582 nM.
For `COc1ccc2nc(C3CC3)c3c(c2c1)CC[C@]1(C[C@H]2C(=O)N[C@]4(C(=O)NS(=O)(=O)C5(C)CC5)C[C@H]4/C=C\CCCCC[C@H](NC(=O)NC(C)(C)C)C(=O)N2C1)O3` [Example 90, (2R,6S,12Z,13aS,14aR,16aS)-6-[(tert-butylcarbamoyl)amino]-5′-cyclopropyl-9′-methoxy-N-[(1-methylcyclopropyl)sulfonyl]-5,16-dioxo-1,1′,2′,6,7,8,9,10,11,13a,14,15,16,16a-tetradecahydrospiro[cyclopropa[e]pyrrolo[1,2-a][1,4]diazacyclopentadecine-2,3′-pyrano[2,3-c]quinoline]-14a(5H)-carboxamide], the IC50 in assay [1] was determined as 0.006 nM. The EC50 in the assay with HCV genotype 1b replicon was found to be 1.15 nM.
In assay [1], `COc1ccc2nc(C3CC3)c3c(c2c1)CC[C@]1(C[C@H]2C(=O)N[C@]4(C(=O)NS(=O)(=O)C5(C)CC5)C[C@H]4/C=C\CCCCC[C@H](NC(=O)OC4CCCC4)C(=O)N2C1)O3` [Example 91, cyclopentyl [(2R,6S,12Z,13aS,14aR,16aS)-5′-cyclopropyl-9′-methoxy-14a-{[(1-methylcyclopropyl)sulfonyl]carbamoyl}-5,16-dioxo-1,1′,2′,5,6,7,8,9,10,11,13a,14,14a,15,16,16a-hexadecahydrospiro[cyclopropa[e]pyrrolo[1,2-a][1,4]diazacyclopentadecine-2,3′-pyrano[2,3-c]quinolin]-6-yl]carbamate] came in with an IC50 of 0.009 nM. Also, in the assay with HCV genotype 1b replicon, the EC50 was determined as 0.46 nM.
`COc1ccc2nc(C3CC3)c3c(c2c1)CC[C@]1(C[C@H]2C(=O)N[C@]4(C(=O)NS(=O)(=O)C5(C)CC5)C[C@H]4/C=C\CCCCC[C@H](NC(=O)OC4(C)CC4)C(=O)N2C1)O3` [Example 92, 1-methylcyclopropyl [(2R,6S,12Z,13aS,14aR,16aS)-5′-cyclopropyl-9′-methoxy-14a-{[(1-methylcyclopropyl)sulfonyl]carbamoyl}-5,16-dioxo-1,1′,2′,5,6,7,8,9,10,11,13a,14,14a,15,16,16a-hexadecahydrospiro[cyclopropa[e]pyrrolo[1,2-a][1,4]diazacyclopentadecine-2,3′-pyrano[2,3-c]quinolin]-6-yl]carbamate]: the half-inhibitory concentration (IC50) in assay [1] was found to be 0.01 nM. Also, the EC50 in the assay on HCV genotype 1b replicon was 0.44 nM.
`COc1ccc2nc(C3CC3)c3c(c2c1)CC[C@]1(C[C@H]2C(=O)N[C@]4(C(=O)NS(=O)(=O)C5(C)CC5)C[C@H]4/C=C\CCCCC[C@H](NC(=O)NC4CCCC4)C(=O)N2C1)O3` [Example 93, (2R,6S,12Z,13aS,14aR,16aS)-6-[(cyclopentylcarbamoyl)amino]-5′-cyclopropyl-9′-methoxy-N-[(1-methylcyclopropyl)sulfonyl]-5,16-dioxo-1,1′,2′,6,7,8,9,10,11,13a,14,15,16,16a-tetradecahydrospiro[cyclopropa[e]pyrrolo[1,2-a][1,4]diazacyclopentadecine-2,3′-pyrano[2,3-c]quinoline]-14a(5H)-carboxamide]: in assay [1], the IC50 came to 0.007 nM. Further, the concentration giving a half-maximal response (EC50) in the assay with HCV genotype 1b replicon came to 3.4 nM.
